Tested on: KCL-22 cells
Test: Soft agar colony formation assay with imatinib
Type: cell-based
Details: 2.5 μM imatinib, one million KCL-22 cells per well, 3 weeks
Procedure: One million KCL-22 cells were seeded per well in triplicate and incubated for 3 weeks. Plates were then stained with 0.005% Crystal Violet for 1 hour, and colonies were scored by microscope.

## Cc1ccc(NC(=O)c2ccc(CN3CCN(C)CC3)cc2)cc1Nc1nccc(-c2cccnc2)n1 [imatinib]
  T315I mutation rate on soft agar, μ: 2.40 × 10^−4 T315I mutations incurred per BCR-ABL fusion gene
Listed as Imatinib
  T315I mutation rate on soft agar, μ: 2.40 × 10^−4 ± 2.89 × 10^−5 T315I mutations incurred per BCR-ABL fusion gene
